From the NIST ThermoML archive (doi:10.1016/j.jct.2016.03.027)
± gives the expanded uncertainty stated by the source.

Assay: wn = mass fraction of the nth substance listed
Conditions: 298.15 K, 100 kPa, Liquid, Vibrating tube method

O=C1OCCO1 [ethylene carbonate] + O
mass density (w1 = 0.1): 1026.64 ± 1.2 kg/m3 | mass density (w1 = 0.2): 1056.71 ± 1.2 kg/m3 | mass density (w1 = 0.3): 1087.25 ± 1.2 kg/m3 | mass density (w1 = 0.4): 1118.6 ± 1.2 kg/m3
